Reference: patent US8288410B2, “3-substituted quinolinium and 7H-indolo[2,3-c]quinolinium salts as new antiinfectives” (Florida Agricultural and Mechanical University, priority 2008, dated 2012)
Counter-ions that a name gives are not always drawn. Like-named read-outs stand apart in the source and are kept apart here.

Assays:
[1] = test system: Candida albicans ATTC 90028; test: Antifungal susceptibility testing, Candida albicans; assay type: cell-based
Procedure, shortened: (§1)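 Modified NCCLS broth microdilution, samples serially diluted from 20 μg/mL top concentration, inocula per 0.5 McFarland (C. albicans in SDB or RPMI 1640; C. neoformans in SDB; A. fumigatus in YM broth or RPMI-1640 + 5% Alamar Blue). IC50 from percent growth versus concentration; MIC read visually as lowest concentration without detectable growth.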

Vero Cells = test: Cytotoxicity, Vero cells; assay type: cell-based
MRSA = test: Antibacterial susceptibility testing, MRSA; assay type: cell-based, methicillin resistant Staphylococcus aureus; details: for IC50 / MIC / MFC: Staphylococcus aureus
Procedure, shortened: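 MRSA, sourced from the American Type Culture Collection, was tested for susceptibility with a modified National Committee for Clinical Laboratory Standards method. DMSO sample solutions were serially diluted in saline and placed in duplicate in 96 well microplates. Broth-diluted bacterial suspensions, standardized to 0.5 McFarland, brought each well to 200 μL, with the highest test concentration at 20 μg/mL.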

[2] = test system: Cryptococcus neoformans ATCC 90113; test: Antifungal susceptibility testing, Cryptococcus neoformans; assay type: cell-based
Procedure, shortened: as §1

[3] = test system: Aspergillus fumigatus ATCC 90906; test: Antifungal susceptibility testing, Aspergillus fumigatus; assay type: cell-based; details: for IC50: ATCC90906, read-out: A fu IC50
Procedure, shortened: as §1

[4] = ATTC90028, Table 2, read-out: Ca IC50
[5] = ATTC90028, Table 2, read-out: Ca MFC
[6] = ATTC90028, Table 2, read-out: Ca MIC
[7] = ATCC90113, Table 2, read-out: Cn IC50
[8] = ATCC90113, Table 2, read-out: Cn MFC
[9] = ATCC90113, Table 2, read-out: Cn MIC

| SMILES | melting point [°C] | TC50 Vero Cells (Vero Cells; Table 2) [µg/mL] | A fu MIC [3] [µg/mL] | Ca IC50 ([1]; Table 2) [µg/mL] | Ca MFC ([1]; Table 2) [µg/mL] | Ca MIC ([1]; Table 2) [µg/mL] | MRSA IC50 (MRSA; Table 2) [µg/mL] | MRSA MFC (MRSA; Table 2) [µg/mL] | MRSA MIC (MRSA; Table 2) [µg/mL] | Cn IC50 ([2]; Table 2) [µg/mL] | Cn MFC ([2]; Table 2) [µg/mL] | Cn MIC ([2]; Table 2) [µg/mL] | A fu MFC [3] [µg/mL] | A fu IC50 ([3]; Table 2, Aspergillus fumigatus) [µg/mL] | further results |
| --- | --- | --- | --- | --- | --- | --- | --- | --- | --- | --- | --- | --- | --- | --- | --- |
| FC(F)(F)c1ccccc1Sc1cc2ccccc2[n+](CCCCCc2ccccc2)c1.[I-] | 227 to 229 | – | – | – | – | – | – | – | – | – | – | – | – | – | – |
| c1ccc(Nc2cc3ccccc3[n+](CCCCCC3CCCCC3)c2)cc1 (as salt: iodide) [JRE-3-19-1] | 156 to 158 | – | – | – | – | – | – | – | – | – | – | – | – | – | – |
| Clc1ccc(Nc2cc3ccccc3[n+](CCCCCc3ccccc3)c2)cc1 [JRE-2-89-1] | 182 to 183 | >25 | 50 | – | – | – | – | – | – | – | – | – | – | – | IC50 [1, 4]: 15 µg/mL; MFC [1, 5]: > 20 µg/mL; MIC [1, 6]: 50 µg/mL; IC50 (MRSA; Table 2, read-out: MRSA IC50): 1.5 µg/mL; MIC (MRSA; Table 2, read-out: MRSA MIC): 3.1 µg/mL; IC50 [2, 7]: 4 µg/mL; MFC [2, 8]: 13 µg/mL; MIC [2, 9]: 6.3 µg/mL; IC50 ([3]; Table 2, Aspergillus fumigatus): 10 µg/mL |
| C[n+]1cc(N(CCCCCC2CCCCC2)c2cccc(C(F)(F)F)c2)cc2ccccc21.[I-] [JRE-3-61-1] | – | >10 | 2.5 | 1.0 | 2.5 | 2.5 | 0.45 | 1.3 | 0.63 | 0.85 | 2.5 | 1.3 | 10 | 1.5 | – |
| COc1ccc(N(CCCCCC2CCCCC2)c2cc3ccccc3[n+](C)c2)cc1.[I-] [JRE-3-68-1] | – | >10 | 1.3 | 0.80 | 1.3 | 1.3 | 0.50 | 1.3 | 1.3 | 0.50 | 5.0 | 1.3 | 10 | 0.80 | – |
| COc1cccc(N(CCCCCC2CCCCC2)c2cc3ccccc3[n+](C)c2)c1.[I-] [JRE-3-69-1] | – | >10 | 1.3 | 0.85 | 2.5 | 2.5 | 0.50 | 1.3 | 1.3 | 0.55 | 5.0 | 1.3 | 10 | 0.70 | – |
| C[n+]1cc2c(c3ccc(Cl)cc3n2CCCCCC2CCCCC2)c2ccccc21.[I-] [JRE-3-84-1] | – | – | 2.5 | – | – | – | – | – | – | – | – | – | 5.0 | – | Ca IC50 ([1]; Table 3): 0.70 µg/mL; Ca MFC ([1]; Table 3): 2.5 µg/mL; Ca MIC ([1]; Table 3): 1.3 µg/mL; TC50 Vero Cells (Vero Cells; Table 3): >10 µg/mL; MRSA IC50 (MRSA; Table 3): 0.80 µg/mL; MRSA MFC (MRSA; Table 3): 1.3 µg/mL; MRSA MIC (MRSA; Table 3): 1.3 µg/mL; Cn IC50 ([2]; Table 3): 0.80 µg/mL; Cn MFC ([2]; Table 3): 2.5 µg/mL; Cn MIC ([2]; Table 3): 1.3 µg/mL; A fu IC50 ([3]; Table 3, Aspergillus fumigatus): 1.5 µg/mL |
| Clc1cccc(Nc2cc3ccccc3[n+](CCCCCC3CCCCC3)c2)c1.[I-] [JRE-3-88-1] | – | 12.5 | 6.3 | 2.0 | 13 | 6.3 | 0.55 | 1.6 | 0.78 | 2.0 | 50 | 3.1 | – | 3.5 | – |
| C[n+]1cc(N(CCCCCC2CCCCC2)c2ccc(OC(F)(F)F)cc2)cc2ccccc21.[I-] [JRE-3-99-1] | – | >10 | 2.5 | 0.45 | 10 | 1.3 | 0.65 | 1.3 | 1.3 | 0.70 | 1.3 | 1.3 | 2.5 | 0.95 | – |
| C[n+]1cc2c(c3ccccc3n2CCCCCC2CCCCC2)c2ccccc21.[I-] [JRE-3-100-1] | – | – | 5.0 | – | – | – | – | – | – | – | – | – | 10 | – | Ca IC50 ([1]; Table 3): 0.80 µg/mL; Ca MFC ([1]; Table 3): 10 µg/mL; Ca MIC ([1]; Table 3): 2.5 µg/mL; TC50 Vero Cells (Vero Cells; Table 3): >10 µg/mL; MRSA IC50 (MRSA; Table 3): 0.70 µg/mL; MRSA MFC (MRSA; Table 3): 1.3 µg/mL; MRSA MIC (MRSA; Table 3): 1.3 µg/mL; Cn IC50 ([2]; Table 3): 1.5 µg/mL; Cn MFC ([2]; Table 3): 5.0 µg/mL; Cn MIC ([2]; Table 3): 2.5 µg/mL; A fu IC50 ([3]; Table 3, Aspergillus fumigatus): 3.5 µg/mL |
| C[n+]1cccc(N(CCCCCC2CCCCC2)c2ccccc2)c1 [JRE-4-1-1] | 124 to 125 | 8.3 | 1.3 | – | – | – | – | – | – | – | – | – | 1.3 | – | IC50 [1, 4]: 3.5 µg/mL; MFC [1, 5]: > 20 µg/mL; MIC [1, 6]: 10 µg/mL; IC50 (MRSA; Table 2, read-out: MRSA IC50): 1.5 µg/mL; MIC (MRSA; Table 2, read-out: MRSA MIC): 5 µg/mL; IC50 [2, 7]: 1.5 µg/mL; MFC [2, 8]: 5 µg/mL; MIC [2, 9]: 2.5 µg/mL; IC50 ([3]; Table 2, Aspergillus fumigatus): 0.9 µg/mL |
| C[n+]1cc(N(CCCCCC2CCCCC2)c2cccc(Cl)c2)cc2ccccc21.[I-] [JRE-4-3-1] | – | >10 | 2.5 | 0.90 | 10 | 2.5 | 0.80 | 2.5 | 1.3 | 0.85 | 5.0 | 1.3 | 10 | 1.0 | – |
| C[n+]1cc(N(CCCCCC2CCCCC2)c2ccc(Cl)cc2)cc2ccccc21.[I-] [JRE-4-9-1] | – | 10 | 1.3 | 0.45 | 5.0 | 1.3 | 0.40 | 0.63 | 0.63 | 0.40 | 2.5 | 0.63 | 10 | 0.80 | – |
| C[n+]1cc2c(c3cc(C(F)(F)F)ccc3n2CCCCCC2CCCCC2)c2ccccc21.[I-] [JRE-4-17-1, 10-Trifluoromethyl-7-(5-cyclohexyl-pentyl)-5-methyl-7H-indolo[2,3-c]quinolin-5-ium iodide] | 231 to 233 | – | 10 | – | – | – | – | – | – | – | – | – | 10 | – | IC50 ([1]; ATTC90028, Table 3, read-out: Ca IC50): 3.5 µg/mL; MFC ([1]; ATTC90028, Table 3, read-out: Ca MFC): 10 µg/mL; MIC ([1]; ATTC90028, Table 3, read-out: Ca MIC): 5 µg/mL; TC50 Vero Cells (Vero Cells; Table 3): >10 µg/mL; IC50 (MRSA; Table 3, read-out: MRSA IC50): 1.5 µg/mL; MFC (MRSA; Table 3, read-out: MRSA MFC): 5 µg/mL; MIC (MRSA; Table 3, read-out: MRSA MIC): 2.5 µg/mL; IC50 ([2]; ATCC90113, Table 3, read-out: Cn IC50): 3 µg/mL; MFC ([2]; ATCC90113, Table 3, read-out: Cn MFC): 5 µg/mL; MIC ([2]; ATCC90113, Table 3, read-out: Cn MIC): 5 µg/mL; IC50 ([3]; Table 3, Aspergillus fumigatus): 3.5 µg/mL |
| C[n+]1cc2c(c3ccc(C(F)(F)F)cc3n2CCCCCC2CCCCC2)c2ccccc21.[I-] [JRE-5-31-1] | – | – | 5.0 | – | – | – | – | – | – | – | – | – | 10 | – | Ca IC50 ([1]; Table 3): 0.80 µg/mL; Ca MFC ([1]; Table 3): — ((-) = >20 μg/mL); Ca MIC ([1]; Table 3): 1.3 µg/mL; TC50 Vero Cells (Vero Cells; Table 3): >10 µg/mL; MRSA IC50 (MRSA; Table 3): 0.70 µg/mL; MRSA MFC (MRSA; Table 3): 1.3 µg/mL; MRSA MIC (MRSA; Table 3): 1.3 µg/mL; Cn IC50 ([2]; Table 3): 0.85 µg/mL; Cn MFC ([2]; Table 3): 2.5 µg/mL; Cn MIC ([2]; Table 3): 1.3 µg/mL; A fu IC50 ([3]; Table 3, Aspergillus fumigatus): 1.5 µg/mL |
| FC(F)(F)c1ccccc1Sc1cc2ccccc2[n+](CCCCC[n+]2cc(Sc3ccccc3C(F)(F)F)cc3ccccc32)c1 [XYZ-IV-45] | 175 to 176 | – | 20 | – | – | – | – | – | – | – | – | – | – | – | IC50 ([1]; ATTC90028, Table 1, read-out: Ca IC50): > 20 µg/mL; MFC ([1]; ATTC90028, Table 1, read-out: Ca MFC): > 20 µg/mL; MIC ([1]; ATTC90028, Table 1, read-out: Ca MIC): > 20 µg/mL; TC50 Vero Cells (Vero Cells; Table 1): NC (NC = Not toxic at 10 μg/mL); IC50 (MRSA; Table 1, read-out: MRS IC50): 0.95 µg/mL; MFC (MRSA; Table 1, read-out: MRS MFC): > 20 µg/mL; MIC (MRSA; Table 1, read-out: MRS MIC): 5 µg/mL; IC50 ([2]; ATCC90113, Table 1, read-out: Cn IC50): 0.6 µg/mL; MFC ([2]; ATCC90113, Table 1, read-out: Cn MFC): 20 µg/mL; MIC ([2]; ATCC90113, Table 1, read-out: Cn MIC): 2.5 µg/mL; IC50 ([3]; Table 1, Aspergillus fumigatus): 9 µg/mL |
| FC(F)(F)c1cccc(Sc2cc3ccccc3[n+](CCCCCc3ccccc3)c2)c1.[I-] [XYZ-IV-54] | – | – | – | – | – | – | – | – | – | – | – | – | – | – | Ca IC50 ([1]; Table 1): 6.0 µg/mL; Ca MFC ([1]; Table 1): — ((-) = >20 μg/mL); Ca MIC ([1]; Table 1): 10 µg/mL; TC50 Vero Cells (Vero Cells; Table 1): NC (NC = Not toxic at 10 μg/mL); MRS IC50 (MRSA; Table 1): 0.85 µg/mL; MRS MFC (MRSA; Table 1): 10 µg/mL; MRS MIC (MRSA; Table 1): 2.5 µg/mL; Cn IC50 ([2]; Table 1): 1.5 µg/mL; Cn MFC ([2]; Table 1): 20 µg/mL; Cn MIC ([2]; Table 1): 2.5 µg/mL; A fu IC50 ([3]; Table 1, Aspergillus fumigatus): 1.5 µg/mL; A fu MFC ([3]; Table 1, Aspergillus fumigatus): — ((-) = >20 μg/mL); A fu MIC ([3]; Table 1, Aspergillus fumigatus): 5.0 µg/mL |
